# Data published in patent publication US12728119B2, “Pharmaceutical composition for preventing or treating cancer comprising 3-ketoacyl CoA thiolase inhibitor and carnitine acylcarnitine carrier inhibitor” (NATIONAL CANCER CENTER, priority 2020, dated 2026).
# What was measured:
# Type in all cases: cell-based
# [1] = tested on: U87MG glioblastoma (GBM) cell line; test: SRB analysis 3; conditions: 48 hours
# Experimental: (§1) Through SRB analysis (n=3), the effect of triple combination treatment of a CAC inhibitor ([…] inhibitor (KN713: trimetazidine) and other anticancer drug on cell growth in the cancer cells was analyzed. (see Table 11). The SRB assay was performed as follows: each cell line (100 μl) was seeded into 96-well microtiter plates at densities ranging from 5,000 to 40,000 cells/well depending on the doubling time of each cell line. After 24 hours, drug (100 μl per well) was added to each well and the culture was incubated at 37° C. for 48 hours. Cells were then fixed in 50% TCA (50 μl per well) and plates were incubated at 4° C. for a minimum of 1 hour or a maximum of 3 hours. After that, the liquid was removed from the plate, then rinsed 5 times with water and dried for approximately 12-24 hours at room temperature (RT). After the fixed cells were stained with 0.4% SRB (100 μl per well) for 10 minutes at room temperature, the plates were washed 3 times with 1% glacial acetic acid and dried at room temperature for about 12-24 hours. SRB staining was dissolved in 10 mM Trizma base and absorbance was read at 515 nm.
# [2] = tested on: T87G glioblastoma (GBM) cell line; test: SRB analysis 3; conditions: 48 hours
# Experimental: as §1
# [3] = tested on: MIA PaCa-2 pancreatic cancer (PDAC) cell line; test: SRB analysis 3; conditions: 48 hours
# Experimental: (§2) Through SRB analysis (n=3), the effect of triple combination treatment of a CAC inhibitor (KN510: omeprazole), ACAA inhibitor (KN713: trimetazidine) and other anticancer drug on cell growth in the cancer cells was analyzed. (see Table 11).
# (§3) The SRB assay was performed as follows: each cell line (100 μl) was seeded into 96-well microtiter plates at densities ranging from 5,000 to 40,000 cells/well depending on the doubling time of each cell line. After 24 hours, drug (100 μl per well) was added to each well and the culture was incubated at 37° C. for 48 hours. Cells were then fixed in 50% TCA (50 μl per well) and plates were incubated at 4° C. for a minimum of 1 hour or a maximum of 3 hours. After that, the liquid was removed from the plate, then rinsed 5 times with water and dried for approximately 12-24 hours at room temperature (RT). After the fixed cells were stained with 0.4% SRB (100 μl per well) for 10 minutes at room temperature, the plates were washed 3 times with 1% glacial acetic acid and dried at room temperature for about 12-24 hours. SRB staining was dissolved in 10 mM Trizma base and absorbance was read at 515 nm. The effect of the drug was expressed as GI50 (50% growth inhibition), TGI (total growth inhibition) or LC50 (lethal concentration). GI50 is the maximum concentration at the moment of 50% inhibition of cell proliferation and IC50 is the concentration of the drug that inhibits the enzyme activity in vitro by 50% in this study.
# [4] = tested on: A375 melanoma cell line; test: SRB analysis 3; conditions: 48 hours
# Experimental: as §2, §3
# [5] = tested on: Caki-1 renal cancer cell line; test: SRB analysis 3; conditions: 48 hours
# Experimental: as §2, §3
# [6] = tested on: MDA-MB-231 breast cancer cell line; test: SRB analysis 3; conditions: 48 hours
# Experimental: as §2, §3
# [7] = tested on: UACC62 melanoma cell line; test: SRB analysis 3; conditions: 48 hours
# Experimental: as §2, §3
# [8] = tested on: AGS gastric cancer cell line; test: SRB analysis 3; conditions: 48 hours
# Experimental: as §2, §3
# [9] = tested on: COLO-205 colon cancer cell line; test: SRB analysis 3; conditions: 48 hours
# Experimental: as §2, §3
# [10] = tested on: SK-hep-1 liver cancer cell line; test: SRB analysis 3; conditions: 48 hours
# Experimental: as §2, §3
# [11] = tested on: DU145 prostate cancer cell line; test: SRB analysis 3; conditions: 48 hours
# Experimental: as §2, §3
# [12] = tested on: OVCAR-8 ovarian cancer cell line; test: SRB analysis 3; conditions: 48 hours
# Experimental: as §2, §3
# [13] = tested on: Huh-7 liver cancer cell line; test: SRB analysis 3; conditions: 48 hours
# Experimental: as §2, §3
# [14] = tested on: A549 non-small cell lung cancer (NSCLC) cell line; test: SRB analysis 3; conditions: 48 hours
# Experimental: as §2, §3
# [15] = tested on: SK-OV-3 ovarian cancer cell line; test: SRB analysis 3; conditions: 48 hours
# Experimental: as §2, §3
# [16] = tested on: AsPC-1 pancreatic cancer (PDAC) cell line; test: SRB analysis 3; conditions: 48 hours
# Experimental: as §2, §3
# [17] = tested on: ACHN renal cancer cell line; test: SRB analysis 3; conditions: 48 hours
# Experimental: as §2, §3
# [18] = tested on: H1975 non-small cell lung cancer (NSCLC) cell line; test: SRB analysis 3; conditions: 48 hours
# Experimental: as §2, §3
# [19] = tested on: PC-3 prostate cancer cell line; test: SRB analysis 3; conditions: 48 hours
# Experimental: as §2, §3
# [20] = tested on: MKN45 gastric cancer cell line; test: SRB analysis 3; conditions: 48 hours
# Experimental: as §2, §3
# [21] = tested on: HCT-116 colon cancer cell line; test: SRB analysis 3; conditions: 48 hours
# Experimental: as §2, §3
# [22] = tested on: MCF7 breast cancer cell line; test: SRB analysis 3; conditions: 48 hours
# Experimental: as §2, §3
# [23] = tested on: cancer cells; test: SRB analysis 3, triple combination, summary over cancer panels
# Experimental: as §2, §3
# [24] = Breast Cancer, BT-549, MDA MB 231
# [25] = Ovarian Cancer, SK-OV-3, OVCAR-3
# [26] = Renal cell carcinoma, ACHN, CAKI-1
smiles,measurement,setting,value
Nc1ccn([C@@H]2O[C@H](CO)[C@@H](O)C2(F)F)c(=O)n1 [Gemcitabine],cell growth (Control = 100),[1]; Gemcitabine 5 μM,3.67
same,cell growth (Control = 100),[2]; Gemcitabine 5 μM,53.69
same,cell growth (Control = 100),[3]; Gemcitabine 2.5 μM,25.9
same,cell growth (Control = 100),[4]; Gemcitabine 5 μM,25.12
same,cell growth (Control = 100),[5]; Gemcitabine 2.5 μM,28.94
same,cell growth (Control = 100),[6]; Gemcitabine 2.5 μM,65.05
same,cell growth (Control = 100),[7]; Gemcitabine 5 μM,31.60
same,cell growth (Control = 100),[8]; Gemcitabine 2.5 μM,15.95
same,cell growth (Control = 100),[9]; Gemcitabine 2.5 μM,6.029
same,cell growth (Control = 100),[10]; Gemcitabine 2.5 μM,22.18
same,cell growth (Control = 100),[11]; Gemcitabine 5 μM,45.33
same,cell growth (Control = 100),[12]; Gemcitabine 2.5 μM,21.24
same,cell growth (Control = 100),[13]; Gemcitabine 2.5 μM,33.13
same,cell growth (Control = 100),[14]; Gemcitabine 2.5 μM,19.65
same,cell growth (Control = 100),[15]; Gemcitabine 2.5 μM,24.21
same,cell growth (Control = 100),[16]; Gemcitabine 2.5 μM,20.83
same,cell growth (Control = 100),[17]; Gemcitabine 2.5 μM,−47.9775
same,cell growth (Control = 100),[18]; Gemcitabine 2.5 μM,16.14
same,cell growth (Control = 100),[19]; Gemcitabine 5 μM,48.0
same,cell growth (Control = 100),"[20]; MKN-45, Gemcitabine 2.5 μM",36.14
same,cell growth (Control = 100),[21]; Gemcitabine 2.5 μM,3.788
same,cell growth (Control = 100),[22]; Gemcitabine 2.5 μM,12.31
same,"Positive/Negative (triple combination of KN510, KN713 and the listed anticancer drug)",[23]; [24],negative
same,"Positive/Negative (triple combination of KN510, KN713 and the listed anticancer drug)","[23]; Colon Cancer, HT-29, COLO-205",negative
same,"Positive/Negative (triple combination of KN510, KN713 and the listed anticancer drug)","[23]; GBM, U87MG, T87G",negative
same,"Positive/Negative (triple combination of KN510, KN713 and the listed anticancer drug)","[23]; Liver Cancer, SNU-449, Huh-7",negative
same,"Positive/Negative (triple combination of KN510, KN713 and the listed anticancer drug)","[23]; NSCLC, A549, H522",negative
same,"Positive/Negative (triple combination of KN510, KN713 and the listed anticancer drug)",[23]; [25],negative
same,"Positive/Negative (triple combination of KN510, KN713 and the listed anticancer drug)","[23]; PDAC, MIA PaCa-2, PANC-1",Positive
same,"Positive/Negative (triple combination of KN510, KN713 and the listed anticancer drug)","[23]; Prostate Cancer, PC-3, DU-145",Positive
same,"Positive/Negative (triple combination of KN510, KN713 and the listed anticancer drug)",[23]; [26],negative
same,"Positive/Negative (triple combination of KN510, KN713 and the listed anticancer drug)","[23]; Stomach Cancer, MKN-28, AGS",negative
same,"Positive/Negative (triple combination of KN510, KN713 and the listed anticancer drug)","[23]; melanoma, UACC62, A375",Positive
CCc1c2c(nc3ccc(OC(=O)N4CCC(N5CCCCC5)CC4)cc13)-c1cc3c(c(=O)n1C2)COC(=O)[C@]3(O)CC [Irinotecan],cell growth (Control = 100),[1]; Irinotecan 2.5 μM,6.31
same,cell growth (Control = 100),[2]; Irinotecan 2.5 μM,71.53
same,cell growth (Control = 100),[3]; Irinotecan 2.5 μM,2.59
same,cell growth (Control = 100),[4]; Irinotecan 2.5 μM,−23.32
same,cell growth (Control = 100),[5]; Irinotecan 2.5 μM,22.65
same,cell growth (Control = 100),[6]; Irinotecan 2.5 μM,78.25
same,cell growth (Control = 100),[7]; Irinotecan 2.5 μM,−13.35
same,cell growth (Control = 100),[8]; Irinotecan 2.5 μM,13.58
same,cell growth (Control = 100),[9]; Irinotecan 2.5 μM,10.02
same,cell growth (Control = 100),[10]; Irinotecan 2.5 μM,−15.5188
same,cell growth (Control = 100),[11]; Irinotecan 5 μM,28.6
same,cell growth (Control = 100),[12]; Irinotecan 2.5 μM,36.34
same,cell growth (Control = 100),[13]; Irinotecan 2.5 μM,15.47
same,cell growth (Control = 100),[14]; Irinotecan 2.5 μM,17.6
same,cell growth (Control = 100),[15]; Irinotecan 2.5 μM,13.57
same,cell growth (Control = 100),[16]; Irinotecan 2.5 μM,45.75
same,cell growth (Control = 100),[17]; Irinotecan 2.5 μM,−43.8973
same,cell growth (Control = 100),[18]; Irinotecan 2.5 μM,25.71
same,cell growth (Control = 100),[19]; Irinotecan 5 μM,37.7
same,cell growth (Control = 100),"[20]; MKN45, Irinotecan 2.5 μM",40.94
same,cell growth (Control = 100),[21]; Irinotecan 2.5 μM,−0.3443
same,cell growth (Control = 100),[22]; Irinotecan 2.5 μM,7.427
same,"Positive/Negative (triple combination of KN510, KN713 and the listed anticancer drug)",[23]; [24],Positive
same,"Positive/Negative (triple combination of KN510, KN713 and the listed anticancer drug)","[23]; Colon Cancer, HT-29, COLO-205",negative
same,"Positive/Negative (triple combination of KN510, KN713 and the listed anticancer drug)","[23]; GBM, U87MG, T87G",Positive
same,"Positive/Negative (triple combination of KN510, KN713 and the listed anticancer drug)","[23]; Liver Cancer, SNU-449, Huh-7",negative
same,"Positive/Negative (triple combination of KN510, KN713 and the listed anticancer drug)","[23]; NSCLC, A549, H522",Positive
same,"Positive/Negative (triple combination of KN510, KN713 and the listed anticancer drug)",[23]; [25],negative
same,"Positive/Negative (triple combination of KN510, KN713 and the listed anticancer drug)","[23]; PDAC, MIA PaCa-2, PANC-1",Positive
same,"Positive/Negative (triple combination of KN510, KN713 and the listed anticancer drug)","[23]; Prostate Cancer, PC-3, DU-145",Positive
same,"Positive/Negative (triple combination of KN510, KN713 and the listed anticancer drug)",[23]; [26],negative
same,"Positive/Negative (triple combination of KN510, KN713 and the listed anticancer drug)","[23]; Stomach Cancer, MKN-28, AGS",Positive
same,"Positive/Negative (triple combination of KN510, KN713 and the listed anticancer drug)","[23]; melanoma, UACC62, A375",Positive
